# Measurements reported in US10428030B2, “Heterocycle derivatives and their use for the treatment of CNS disorders” (Trillium Therapeutics Inc., priority 2015, dated 2019).
# How the values were obtained:
# [1] = Fixed speed rotorod, gross motor function (rat); details: male, Sprague-Dawley, in vivo, po
# Experimental: (§1) On the test day following a defined drug pretreatment period, rats received a maximal electroshock (150 mA, 0.2 s duration, 60 Hz) via corneal electrodes. Protection was defined as absence of a full tonic seizure within 10 s of stimulus delivery. Twenty minutes before the MES procedure, the animals were tested on a fixed speed rotorod (best score from 3 trials at 8 r.p.m, trial duration=60 s) to give an early assessment of drug effect on gross motor function.
# Male Sprague-Dawley rats = test: Maximal Electroshock Seizure (MES) rat model; assay type: in vivo; details: po, 4 hours
# Experimental: (§2) Male, Sprague-Dawley rats and CD-1 mice were used for all studies. All animals were allowed ad-lib access to food and water except during experiment. Animals were housed within an animal vivarium maintained under a 12 h light:dark cycle (lights on: 07:00 h), and all experiments were conducted in the animals light phase. For all experiments, animals were habituated to the vivarium for a minimum of 72 h before experimentation. The experimental procedures used in the present investigation were conducted under the Association for Assessment and Accreditation of Laboratory Animal Care (AAALAC) and the Canadian Council on Animal Care (CCAC) guidelines.
# (§3) All compounds were sonicated in 5% Tween 80® in saline or methylcellulose 0.5% (wgt/vol), using MC and sterile water and injected in a dose volume of 5 ml/kg or 10 ml/kg (rat), and 10 ml/kg (mouse). Drugs were administered by either the oral, intraperitoneal or intravenous route.
# Male Sprague-Dawley rats of body weight 80-100 g were used for these studies. Each experiment was conducted over 3 consecutive days. On day 1 and 2, each rat received a single electrical stimulus (150 mA, 0.2 s duration, 60 Hz) via corneal electrodes moistened with saline (Shock stimulator type 221: Harvard apparatus). […] Typically this reflected approximately 70-90% of the initial group.
# as §1
# mouse [2] = details: literature report; cited from earlier work
# mouse [3] = details: literature report; cited from earlier work; remark: listed apart in the source
# [4] = system: Frings audiogenic seizure-susceptible mice; test: Frings audiogenic seizure (AGS)-susceptible mouse model; assay type: in vivo; details: Mus musculus, ip, sound-induced seizures
# From the text: Frings audiogenic seizure (AGS)-susceptible mice model examines the ability of an investigational drug to alter the onset and/or severity of seizures in a genetic mouse model of seizure susceptibility. Mice are genetically susceptible to sound-induced reflex seizures. Their seizure phenotype is characterized by wild running, loss of righting reflex, tonic flexion, and tonic extension in response to high-intensity sound stimulation. […] For example, the prototypical anticonvulsants phenytoin and ethosuximide display widely divergent clinical spectrums in humans, but are both active against sound-induced seizures in mice. Yet, the preclinical utility of this animal model rests in the useful information that can be obtained within a genetically susceptible model of seizures. Further, efficacy in this model provides proof of concept of brain bioavailability following systemic administration. The Frings AGS-susceptible mouse has a well-validated epilepsy phenotype that makes it particularly useful as a screening model. Beginning at about 21 days of age, Frings AGS-susceptible mice display prominent seizure activity in response to a high-intensity sound stimulus. They then remain susceptible to sound throughout their life. This is in stark contrast to the DBA2J AGS-susceptible mouse, which is the other common model of sound-induced seizures, as DBA2J mice are only susceptible to sound-induced seizures during a narrow developmental window (post-natal days 18-30). Thus, the Frings AGS-susceptible mouse seizures respond to a wide range of CNS-active drugs and display sound-induced seizures throughout their lifetime. In this regard, Frings AGS-susceptible mice are a highly useful screening model for the identification and characterization of compounds potentially effective against inherited epilepsy.
# Male and female Frings audiogenic seizure-susceptible mice (18-25 g) are maintained in an in-house colony at the University of Utah. For each screening test, groups of 8 mice each are treated i.p. with varying doses of the investigational compound. At the time of peak effect as determined in the MES test (Test 4 in CF1 mice), individual mice are placed in a round plexiglass jar (diameter, 15 cm, height, 18 cm) and exposed to a sound stimulus of 110 decibels (11 KHz) delivered for 20 sec. Mice are observed for 25 sec for the presence or absence of hind limb tonic extension. Mice not displaying hind limb tonic extension are considered protected. The severity of a seizure may also be quantitated by assigning a numerical score to the observed response, e.g. no response—0; wild running for <10 sec—1; wild running for >10 sec—2; clonic seizure—3; forelimb extension/hind limb flexion—4; tonic seizure—5.
# MTLE mice = test: Model of mesial temporal lobe epilepsy (mTLE), hippocampal paroxysmal discharges; assay type: in vivo, mouse; details: after 600 mg/kg, mice 4 weeks after intra-hippocampal KA
# From the text: The MTLE mouse model recapitulates many of the characteristics observed in human patients with temporal lobe epilepsy (TLE). The MTLE mouse is characterized by an initial neurotoxic event, a unilateral intrahippocampal injection of kainic acid (KA) into the dorsal hippocampus, which induces non-convulsive SE lasting several hours. This initial event is followed by a latent phase. Two to three weeks after KA injection, spontaneous recurrent hippocampal paroxysmal discharges (HPD) are only recorded in the epileptic hippocampus and remain stable and stereotyped for the whole life of the animal. These HPDs occur spontaneously about 30-60 times per hour when the animals are in a state of quiet wakefulness, generally last 15-20 sec and are associated with behavioral arrest and/or mild motor automatisms. Adult, male […] mice are stereotaxically injected with kainate (1 nmol in 100 nL) and implanted with 1 bipolar electrode in the dorsal hippocampus, and then allowed to recover for four weeks prior to evaluation in the screening protocol. Using a group size of 4 MTLE mice per dose of investigational compound, the compounds are typically first tested using the 6 Hz 44 mA ED50 value. […] For all acute studies, drug conditions are counter-balanced in MTLE mice over a two week period using a Latin square dosing protocol. Animals are used as their own controls. Digital EEG recordings are performed on freely moving animals for 20 minutes pre-injection (reference period) and 90 minutes post-injection. Data are analyzed for the period of 10 minutes before and 10 minutes after peak time of effect of the investigational compound, as determined from the 6 Hz 44 mA seizure test. The effects of the injected compound are compared to the reference period. Any accompanying effect on animal behavior is noted. Data are presented as the raw number of HPDs during the analyzed 20 min period (10 minutes before and 10 minutes after peak time of effect of compound) for each MTLE mouse, group mean number of HPDs, and effect on suppression as represented by percent of baseline HPD values.
# [5] = system: Frings audiogenic seizure-susceptible mice; details: general statement on prototypical anticonvulsants; cited from earlier work
# CD-1 mice = test: s.c Pentylenetetrazole (PTZ) mouse model; assay type: in vivo; details: ip, PTZ 85 mg/kg s.c.
# Experimental: as §2, §3
# Sixty minutes following drug or vehicle pretreatment, all mice received a single subcutaneous injection of pentylenetetrazol (PTZ; 85 mg/kg). The animals were then transferred to single observation cages (dimension: 11.5″×7.5″×5″) and observed continuously for 30 min. […] In the event of a seizure, the onset latency from PTZ injection was recorded.
smiles,measurement,setting,value
"O=C1Nc2ccc(OCc3ccccc3)cc2OC1(F)F [I(D), 7-Benzyloxy-2,2-difluoro-4H-benzo[1,4]oxazin-3-one]",ED50 at 4 hours,[1],> 120 mg/kg
same,ED50,Male Sprague-Dawley rats,30.5 ± 0.8 mg/kg
O=C1CCc2cc(OCc3ccccc3)ccc2N1,activity in mouse electroshock seizure (MES) model,mouse [2],active
same,activity in pentylenetetrazole (PTZ) model,mouse [3],active
NCC1(CC(=O)O)CCCCC1 [Gabapentin],ED50,[4],91.1 mg/kg
NC(=O)N1c2ccccc2C=Cc2ccccc21 [Carbamazepine],ED50,[4],11.2 mg/kg
"CC[C@@H](C(N)=O)N1CCCC1=O [Levetiracetam, reference compound]",Effect (% baseline),MTLE mice; HPD,68.7 % baseline
same,Mean HPD Counts,MTLE mice,14.3
O=C1NC(=O)C(c2ccccc2)(c2ccccc2)N1 [Phenytoin],ED50,[4],3.8 mg/kg
same,activity against sound-induced seizures in mice,[5],active
"O=C1COc2cc(OCc3ccccc3)ccc2N1 [Compound 1, 7-Benzyloxy-4H benzo[1,4]oxazin-3-one, reference compound]",ED50,Male Sprague-Dawley rats,> 300 mg/kg
same,ED50,CD-1 mice,> 300 mg/kg
NC(=O)OCC(COC(N)=O)c1ccccc1 [Felbamate],ED50,[4],10 mg/kg
Nc1nnc(-c2cccc(Cl)c2Cl)c(N)n1 [Lamotrigine],ED50,[4],2.39 mg/kg
CCC1(C)CC(=O)NC1=O (centres unmarked) [Ethosuximide],ED50,[4],328 mg/kg
same,activity against sound-induced seizures in mice,[5],active
CCCC(CCC)C(=O)O [Valproic Acid],ED50,[4],155 mg/kg
